Test results: ChEMBL document CHEMBL1152277, “Lead optimization of 4-acetylamino-2-(3,5-dimethylpyrazol-1-yl)-6-pyridylpyrimidines as A2A adenosine receptor antagonists for the treatment of Parkinson's disease” (J Med Chem, 2008)
Values after ≈ are worked out from the molar mass of the structure shown. Active and inactive are the calls of the source. The calls are words filed in the database; no cut-off is given here.

What was measured:
[1] = Dissociation constant, pKa of the compound; assay type: physicochemical
[2] = system: Rattus norvegicus; experiment: Inhibition of haloperidol-induced catalepsy in rat at 30 mg/kg, po after 2 hrs; assay type: functional
[3] = target: T1, Adenosine receptor A1 (Homo sapiens, UniProt P30542); experiment: Displacement of [3H]DPCPX from human adenosine A1 receptor expressed in HEK293 cells; assay type: cell-based
T1 sequence (P30542 whole entry): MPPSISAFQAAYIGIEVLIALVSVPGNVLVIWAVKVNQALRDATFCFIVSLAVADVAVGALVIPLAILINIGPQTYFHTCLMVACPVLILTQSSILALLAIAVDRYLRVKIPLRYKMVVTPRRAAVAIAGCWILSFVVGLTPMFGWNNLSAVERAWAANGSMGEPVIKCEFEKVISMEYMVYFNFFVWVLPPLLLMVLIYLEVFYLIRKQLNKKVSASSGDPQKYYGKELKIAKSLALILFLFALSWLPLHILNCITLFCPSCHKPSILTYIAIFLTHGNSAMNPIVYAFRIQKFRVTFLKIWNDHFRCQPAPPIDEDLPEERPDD

[4] = target: Voltage-gated inwardly rectifying potassium channel KCNH2 (Homo sapiens, UniProt Q12809); experiment: Inhibition of human ERG by electrophysiology assay
Chain of Voltage-gated inwardly rectifying potassium channel KCNH2 (Q12809 whole entry): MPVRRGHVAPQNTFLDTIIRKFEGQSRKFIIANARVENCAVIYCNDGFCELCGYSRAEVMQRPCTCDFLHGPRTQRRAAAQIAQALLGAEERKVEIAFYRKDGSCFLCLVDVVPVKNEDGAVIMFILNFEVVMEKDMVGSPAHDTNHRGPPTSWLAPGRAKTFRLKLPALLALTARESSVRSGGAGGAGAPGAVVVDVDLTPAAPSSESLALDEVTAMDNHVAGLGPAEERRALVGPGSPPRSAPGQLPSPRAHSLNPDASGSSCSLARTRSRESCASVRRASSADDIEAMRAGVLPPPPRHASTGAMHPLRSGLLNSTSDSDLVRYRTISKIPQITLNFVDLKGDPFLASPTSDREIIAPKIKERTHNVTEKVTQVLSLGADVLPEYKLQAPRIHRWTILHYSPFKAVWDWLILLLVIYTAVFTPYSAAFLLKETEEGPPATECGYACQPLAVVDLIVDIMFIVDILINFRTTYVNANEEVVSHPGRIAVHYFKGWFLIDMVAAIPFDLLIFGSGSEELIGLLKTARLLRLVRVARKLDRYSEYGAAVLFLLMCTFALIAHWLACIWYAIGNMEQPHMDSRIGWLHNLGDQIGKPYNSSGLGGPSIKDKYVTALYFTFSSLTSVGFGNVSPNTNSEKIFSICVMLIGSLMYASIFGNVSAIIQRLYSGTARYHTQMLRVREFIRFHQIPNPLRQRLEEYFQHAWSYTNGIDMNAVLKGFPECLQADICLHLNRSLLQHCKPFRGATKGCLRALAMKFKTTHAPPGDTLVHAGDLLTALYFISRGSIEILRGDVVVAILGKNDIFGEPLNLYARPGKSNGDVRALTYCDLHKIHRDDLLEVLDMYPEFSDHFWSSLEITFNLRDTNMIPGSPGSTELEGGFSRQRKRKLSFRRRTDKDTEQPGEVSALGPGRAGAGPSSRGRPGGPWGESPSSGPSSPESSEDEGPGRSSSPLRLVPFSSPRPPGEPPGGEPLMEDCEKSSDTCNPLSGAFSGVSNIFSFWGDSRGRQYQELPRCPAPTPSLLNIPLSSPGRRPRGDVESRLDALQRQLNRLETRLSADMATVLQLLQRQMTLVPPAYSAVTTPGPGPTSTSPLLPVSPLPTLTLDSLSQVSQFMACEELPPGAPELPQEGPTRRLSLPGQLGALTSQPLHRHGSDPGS

[5] = Permeability across MDCK cell membrane by cell-based MDR assay; assay type: ADME, Canis lupus familiaris; conditions: dog, MDCK-MDR1; read-out: permeability
[6] = Metabolic stability in rat liver microsomes assessed as intrinsic clearance by LC-MS/MS analysis; assay type: ADME, Microsome
[7] = Metabolic stability in human liver microsomes assessed as intrinsic clearance by LC-MS/MS analysis; assay type: ADME, Microsome
[8] = target: Adenosine receptor A2a (Rattus norvegicus, UniProt P30543); experiment: Displacement of [3H][…] from rat adenosine A2A receptor expressed in CHO cells; assay type: cell-based
Chain of Adenosine receptor A2a (Rattus norvegicus, UniProt P30543) (P30543 whole entry): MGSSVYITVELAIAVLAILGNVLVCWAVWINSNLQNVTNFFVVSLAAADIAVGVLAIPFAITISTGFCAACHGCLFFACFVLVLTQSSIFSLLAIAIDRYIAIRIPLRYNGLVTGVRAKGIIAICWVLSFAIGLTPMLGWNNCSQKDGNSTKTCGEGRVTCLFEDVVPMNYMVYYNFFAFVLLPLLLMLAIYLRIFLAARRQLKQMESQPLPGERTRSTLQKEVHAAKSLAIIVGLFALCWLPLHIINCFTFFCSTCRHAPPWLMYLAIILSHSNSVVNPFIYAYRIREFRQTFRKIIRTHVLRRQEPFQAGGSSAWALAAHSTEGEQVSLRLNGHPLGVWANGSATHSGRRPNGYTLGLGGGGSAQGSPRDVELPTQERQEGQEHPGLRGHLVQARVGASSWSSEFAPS

[9] = target: T2, Adenosine receptor A2a (Homo sapiens, UniProt P29274); experiment: Displacement of [3H][…] from human adenosine A2A receptor expressed in HEK293 cells; assay type: cell-based
T2 sequence (P29274 whole entry): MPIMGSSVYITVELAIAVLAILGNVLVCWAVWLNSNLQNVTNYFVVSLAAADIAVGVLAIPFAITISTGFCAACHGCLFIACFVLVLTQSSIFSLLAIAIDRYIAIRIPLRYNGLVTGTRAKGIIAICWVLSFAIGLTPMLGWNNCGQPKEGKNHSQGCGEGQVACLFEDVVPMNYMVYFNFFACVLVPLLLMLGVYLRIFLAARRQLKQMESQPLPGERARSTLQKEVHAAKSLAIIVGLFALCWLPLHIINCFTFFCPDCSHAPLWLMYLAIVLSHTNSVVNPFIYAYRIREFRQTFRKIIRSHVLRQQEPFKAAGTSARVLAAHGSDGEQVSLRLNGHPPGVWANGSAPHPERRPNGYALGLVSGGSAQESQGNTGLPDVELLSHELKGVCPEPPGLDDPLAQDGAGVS

[10] = Drug concentration in rat brain at 10 mg/kg, po after 2 hrs; assay type: ADME, organism-based; parameters: dose 10 mg/kg, route oral; conditions: read-out: Drug uptake
[11] = target: T2, Adenosine receptor A2a; experiment: Antagonist activity at human adenosine A2A receptor expressed in CHO cells assessed as inhibition of CGS-21680-induced cAMP production; assay type: functional, cell-based
[12] = Aqueous solubility in phosphate-buffered saline at pH 7.4; assay type: physicochemical
[13] = target: T3, Cytochrome P450 3A4 (Homo sapiens, UniProt P08684)
T3 sequence (P08684 whole entry): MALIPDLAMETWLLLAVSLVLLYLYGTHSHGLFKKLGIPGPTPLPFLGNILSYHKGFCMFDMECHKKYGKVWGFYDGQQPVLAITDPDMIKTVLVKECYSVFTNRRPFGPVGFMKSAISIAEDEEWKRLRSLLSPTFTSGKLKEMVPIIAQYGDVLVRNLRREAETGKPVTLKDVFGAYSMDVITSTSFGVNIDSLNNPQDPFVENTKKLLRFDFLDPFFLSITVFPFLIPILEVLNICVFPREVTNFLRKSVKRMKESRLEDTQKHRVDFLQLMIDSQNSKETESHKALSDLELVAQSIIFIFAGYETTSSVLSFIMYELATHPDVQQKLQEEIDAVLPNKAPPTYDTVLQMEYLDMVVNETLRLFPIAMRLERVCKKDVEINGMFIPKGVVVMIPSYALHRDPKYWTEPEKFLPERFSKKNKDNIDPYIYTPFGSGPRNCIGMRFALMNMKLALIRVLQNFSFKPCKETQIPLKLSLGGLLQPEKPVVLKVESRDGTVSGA
Description: Inhibition of CYP3A4 in human liver microsomes by LC-MS/MS analysis

[14] = Plasma concentration in rat at 10 mg/kg, po after 2 hrs; assay type: ADME, organism-based; parameters: dose 10 mg/kg, route oral
[15] = species on record: Homo sapiens; experiment: Selectivity ratio of Ki for human adenosine A1 receptor to Ki for human adenosine A2A receptor
[16] = Lipophilicity, log D at pH 7.4; assay type: physicochemical; conditions: buffer
[17] = system: Rattus norvegicus; experiment: Inhibition of haloperidol-induced catalepsy in rat at 10 mg/kg, po after 2 hrs; assay type: functional; parameters: scale not given: the % may be the effect or the level left
[18] = Permeability from apical to basolateral side of the human Caco-2 membrane by LC-MS/MS analysis; assay type: ADME, cell-based; conditions: read-out: permeability
[19] = species on record: Rattus norvegicus; experiment: Inhibition of haloperidol-induced catalepsy in rat assessed as minimal effective dose; assay type: functional; conditions: read-out: MED
[20] = system: Rattus norvegicus; experiment: Inhibition of haloperidol-induced catalepsy in rat at 1 mg/kg, po; assay type: functional, organism-based; parameters: dose 1 mg/kg
[21] = system: Liver microsomes; experiment: Induction of glutathione adducts formation in human liver microsomes; parameters: species or system Microsome
[22] = AUC ((0 to 24 hrs)) in mouse at 300 mg/kg, po; assay type: ADME, organism-based; parameters: time < 24 hr, dose 300 mg/kg, route oral; conditions: plasma
[23] = Solubility at pH 3.7; assay type: physicochemical; conditions: buffer
[24] = AUC ((0 to 24 hrs)) in dog at 30 mg/kg, po; assay type: ADME, organism-based, Canis lupus familiaris; parameters: time < 24 hr, dose 30 mg/kg, route oral; conditions: plasma
[25] = system: Rattus norvegicus; experiment: Potentiation of L-dopa-induced rotational behavior in unilaterally 6-hydroxydopamine-lesioned po dosed Wistar rat pretreated 30 mins before L-dopa challenge measured over 5 hrs; assay type: functional, organism-based
[26] = system: Rattus norvegicus; experiment: Potentiation of L-dopa-induced rotational behavior in unilaterally 6-hydroxydopamine-lesioned po dosed Wistar rat assessed as minimal effective dose pretreated 30 mins before L-dopa challenge measured over 5 hrs; assay type: functional; conditions: read-out: MED
[27] = target: T3, Cytochrome P450 3A4; experiment: Inhibition of recombinant CYP3A4-catalyzed dealkylation of BFC assessed as formation of 7HFC by microplate fluorescence technique; assay type: ADME; conditions: recombinant enzyme
[28] = Aqueous solubility at pH >= […]; assay type: physicochemical; conditions: buffer
[29] = system: Rattus norvegicus; experiment: Inhibition of haloperidol-induced catalepsy in rat at 3 mg/kg, po; assay type: functional, organism-based; parameters: dose 3 mg/kg
[30] = AUC (0 to 24 hrs) in rat plasma at 10 mg/kg, po; assay type: ADME, organism-based; parameters: time < 24 hr, dose 10 mg/kg, route oral

| Ki [3] [nM] | Ki [9] [nM] | IC50 [13] [nM] | Ratio Ki [15] | SMILES | CLint scaled [6] [mL/min/kg] | CLint scaled [7] [mL/min/kg] | Ki [8] [nM] | concentration at 2 h [10] [ng/g] | IC50 [11] [nM] | concentration at 2 h [14] [ng/mL] | minimal effective dose [19] [mg/kg] | other results |
| --- | --- | --- | --- | --- | --- | --- | --- | --- | --- | --- | --- | --- |
| 195 | 2.9 | 18000 | 67 | CC(=O)Nc1cc(-c2cncc(O)c2)nc(-n2nc(C)cc2C)n1 | 140 | 41 | 32 | 154 | 64 | 264 |  | Activity [2]: inactive; logD [16]: 2.4 |
| 110 | 0.6 | > 20000 | 187 | COc1cccc(-c2cc(NC(C)=O)nc(-n3nc(C)cc3C)n2)c1F | 360 | 36 | 12 |  | 32 |  |  | Activity [2]: inactive; logD [16]: 2; Papp A→B [18]: 26 ×10⁻⁶ cm/s; solubility [12]: 170 µg/mL (≈ 478 µM) |
| 65 | 0.92 | 740 | 71 | COc1cccc(-c2cc(NC(C)=O)nc(-n3nc(C)cc3C)n2)c1 |  |  |  |  |  |  |  |  |
| 780 | 7.4 | 16000 | 106 | COC(=O)Nc1cc(-c2cncc(OC)c2)nc(-n2nc(C)cc2C)n1 | 93 | 16 | 68 |  | 167 |  | 10 | Activity [17]: 46% |
| 4600 | 87 |  | 53 | CC(=O)Nc1cc(-c2cc(N3CCOCC3)ccn2)nc(-n2nc(C)cc2C)n1 |  |  |  |  |  |  |  |  |
| 290 |  | 43000 | 3.3 | CC(=O)Nc1cc(-c2ccccc2)nc(-n2nc(C)cc2C)n1 |  |  |  |  |  |  |  |  |
| 2100 | 120 | > 20000 | 18 | CC(=O)Nc1cc(-c2cccnc2)nc(-n2nc(C)cc2C)n1 |  |  |  |  |  |  |  |  |
| 280 | 2.3 | > 20000 | 121 | CC(=O)Nc1cc(-c2cccc(N3CCCOCC3)n2)nc(-n2nc(C)cc2C)n1 | 1000 | 94 |  |  |  |  |  |  |
| 31 | 0.56 |  | 54 | CC(=O)Nc1cc(-c2cccc(N3CCCCC3)n2)nc(-n2nc(C)cc2C)n1 |  |  |  |  |  |  |  |  |
| 190 | 2.3 | 18000 | 82 | COc1cncc(-c2cc(NC(C)=O)nc(-n3nc(C)cc3C)n2)c1 | 120 | 35 | 62 |  | 57 |  | 1 | Activity [17]: 64%; Activity [20]: Active; IC50 [4]: 24000 nM; solubility [28]: < 10 µg/mL; Activity [29]: Active; AUC(0-t) at 24 h [30]: 1430 ng·h/mL |
| 440 | 7.9 | > 20000 | 57 | CC(=O)Nc1cc(-c2cccc(N)n2)nc(-n2nc(C)cc2C)n1 |  |  |  |  |  |  |  |  |
| 620 | 7.8 | 20000 | 79 | CCOC(=O)Nc1cc(-c2cncc(OC)c2)nc(-n2nc(C)cc2C)n1 | 59 | 38 | 82 |  | 196 |  |  | Activity [2]: inactive |
| 820 | 40 | 8500 | 21 | CC(=O)Nc1cc(-c2ccncc2)nc(-n2nc(C)cc2C)n1 |  |  |  |  |  |  |  |  |
| 55 | 0.72 | 2500 | 76 | COCCN(C)c1cccc(-c2cc(NC(C)=O)nc(-n3nc(C)cc3C)n2)n1 | 490 | 52 | 14 | 870 | 70 | 220 | 10 | Activity [17]: 70% |
| 110 | 3.1 |  |  | COCCOc1cncc(-c2cc(NC(C)=O)nc(-n3nc(C)cc3C)n2)c1 | 43 | 3 |  |  |  |  |  |  |

| SMILES | Ki [3] [nM] | Ki [9] [nM] | IC50 [13] [nM] | Ratio Ki [15] | CLint scaled [6] [mL/min/kg] | CLint scaled [7] [mL/min/kg] | Ki [8] [nM] | concentration at 2 h [10] [ng/g] | IC50 [11] [nM] | concentration at 2 h [14] [ng/mL] | minimal effective dose [19] [mg/kg] | other results |
| --- | --- | --- | --- | --- | --- | --- | --- | --- | --- | --- | --- | --- |
| CC(=O)Nc1cc(-c2cccc(N3CCN(C)CC3)n2)nc(-n2nc(C)cc2C)n1 | 120 | 0.71 | > 20000 | 175 | 25 | 3 | 7 | 91 | 7 | 53 |  | pKa [1]: 7.6; Activity [2]: inactive; IC50 [4]: 540 nM; Papp [5]: 15.4 ×10⁻⁶ cm/s; solubility [12]: 240 µg/mL (≈ 590 µM) |
| COc1cc(OC)cc(-c2cc(NC(C)=O)nc(-n3nc(C)cc3C)n2)c1 | 22 | 0.19 | 380 | 116 | 110 | 9.3 | 3 | 1150 | 17 | 1330 | 1 | Activity [17]: 49%; logD [16]: 3.2; Papp A→B [18]: 2.4 ×10⁻⁶ cm/s; solubility [12]: < 20 µg/mL |
| COC1CCN(c2cccc(-c3cc(NC(C)=O)nc(-n4nc(C)cc4C)n3)n2)CC1 | 85 | 0.44 |  |  | 540 | 41 |  |  |  |  | 1 | Activity [17]: 88%; Activity [20]: Active; Activity [21]: Not Active; AUC(0-t) at 24 h [22]: 25700 ng·h/mL; solubility [23]: 1000 µg/mL (≈ 2370 µM); AUC(0-t) at 24 h [24]: 3400 ng·h/mL; Activity [25]: Dose-dependent effect; minimal effective dose [26]: 3 mg/kg |
| CC(=O)Nc1cc(-c2cccc(N3CCOCC3)n2)nc(-n2nc(C)cc2C)n1 | 130 | 0.83 | > 20000 | 155 | 25 | 3 | 10 | 170 | 13 | 150 | 3 | Activity [17]: 55%; pKa [1]: 2.9; Activity ([4]; human): Not Active; Activity [27]: Not Active; solubility [12]: 140 µg/mL (≈ 356 µM) |
| COc1cncc(-c2cc(NC(=O)CN3CCOCC3)nc(-n3nc(C)cc3C)n2)c1 | 940 | 4 | > 20000 | 235 | 150 | 3 | 30 |  | 49 |  |  | pKa [1]: 5.3; Activity [2]: inactive; logD [16]: 2.4 |
| CCC(=O)Nc1cc(-c2cncc(OC)c2)nc(-n2nc(C)cc2C)n1 | 70 | 1.8 | 17000 | 39 | 110 | 29 | 21 | 1380 | 31 | 860 | 1 | Activity [17]: 69%; pKa [1]: 3.6; logD [16]: 2.8 |
| CC(=O)Nc1cc(-c2cncc(N3CCOCC3)c2)nc(-n2nc(C)cc2C)n1 | 220 | 3 | > 20000 | 74 | 150 | 12 |  |  |  |  |  |  |
| CC(=O)Nc1cc(-c2ccnc(N3CCOCC3)c2)nc(-n2nc(C)cc2C)n1 | 580 | 12 |  | 48 |  |  |  |  |  |  |  |  |
| CC(=O)Nc1cc(-c2cccc(N(C)C)n2)nc(-n2nc(C)cc2C)n1 | 81 | 0.61 | 25000 | 133 | 1600 | 54 | 20 | 180 | 156 | 290 | 30 |  |
| CC(=O)Nc1cc(-c2cccc(N3CCCC3)n2)nc(-n2nc(C)cc2C)n1 | 7.2 | 0.26 | > 20000 | 28 |  |  |  |  |  |  |  |  |
| COC1CN(c2cccc(-c3cc(NC(C)=O)nc(-n4nc(C)cc4C)n3)n2)C1 | 34 | 0.47 | 11000 | 72 | 160 | 25 | 1.5 | 560 | 18 | 150 |  | pKa [1]: 3.4; logD [16]: 3.6; solubility [12]: 30 µg/mL (≈ 76.2 µM) |
